Data reported in patent US12649750B2, “Macrocyclic compounds, compositions, and methods of using thereof” (Sionna Therapeutics Inc., priority 2022, dated 2026).

Molecular target: T1, NBD1 (Homo sapiens, UniProt P13569)
T1 construct: Purified recombinant NBD1 was produced using previously described methods; made in house
Test: Aggregation analysis using differential static light scattering (DSLS), thermal stability of NBD1 (ΔTagg)
Type: binding
Settings: ΔTagg versus DMSO control, NBD1 0.2 mg/ml
Experimental: Example 386. Aggregation Analysis Using Differential Static Light Scattering (DSLS)
Purified recombinant NBD1 was produced using previously described methods (A. Schmidt, J. L. Mendoza, P. J. Thomas (2011) Biochemical and Biophysical Approaches to Probe CFTR Structure (365-376) M. D. Amaral, K. Kunzelmann (eds.), Cystic Fibrosis, Methods in Molecular Biology 741, Springer Science+Business Media). The effect of test compounds on thermal stability of NBD1 was evaluated by differential static light scattering (DSLS) using the Harbinger Stargazer-384 instrument (Epiphyte Three, Toronto, Canada). Test compounds were dissolved and diluted to desired concentrations in 100% DMSO. The compounds or DMSO controls (100 nL) were stamped into wells of a […] low volume optical plate (Corning Inc., Corning, NY) using the Echo 555 acoustic liquid handler (Labcyte Inc., San Jose, CA).
NBD1 protein was diluted to 0.2 mg/ml in S200 buffer (50 mM Tris-HCl, 150 mM NaCl, 5 mM MgCl2, 2 mM ATP, 2 mM DTT, pH7.6) containing 1% glycerol. 10 uL of protein solution was aliquoted into the 384-well plate harboring the test compounds and 10 uL mineral oil was overlaid onto the protein solution, using the epMotion robotic liquid handler (Eppendorf North America, Hauppauge, NY). After placing into the Stargazer instrument, the plate was heated at 1° C. per minute to 70° C. Images were captured from 25° C. to 70° C. every 0.5° C. At the end of the experiment run, instrument software integrated image files and analyzed data automatically. A […] regression curve was generated for each well, representing the increase in light scattering over time. A temperature of aggregation (Tagg) was calculated based on the inflection point of the curve. To better compare data across experiments the average Tagg for DMSO control wells was calculated and subtracted from values for wells containing compounds to obtain a “ΔTagg” value. These ΔTagg values reflect stabilizing efficacy of the compounds. As set forth in Table 2 below, an ΔTagg value less than or equal to 5° C. is marked “A”; a value above 5° C. and less than or equal to 10° C. is marked “B”; a value greater than 10° C. and less than or equal to 25° C. is marked “C”.

T1 sequence (P13569 423-646 limits assumed): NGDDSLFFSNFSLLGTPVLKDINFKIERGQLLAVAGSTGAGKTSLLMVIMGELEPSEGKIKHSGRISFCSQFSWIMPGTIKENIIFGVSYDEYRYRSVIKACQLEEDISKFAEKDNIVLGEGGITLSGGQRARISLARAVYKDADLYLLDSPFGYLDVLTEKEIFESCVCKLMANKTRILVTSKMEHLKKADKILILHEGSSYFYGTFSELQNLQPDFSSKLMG

Compound	DSLS 3D (100 μM ΔT)
C[C@@H](Cc1cccc(C2CCCC(C)(C)CS(=O)(=O)CCc3c(c(F)cc4[nH]ccc34)Oc3ccc(F)c(c3)-c3c(C#N)cnn32)c1)C(=O)O (mixture of isomers) [Compound 151, (2S)-3-[3-(3-Cyano-23,29-difluoro-11,11-dimethyl-13,13-dioxo-25-oxa-13λ6-thia-5,6,20-triazapentacyclo[24.3.1.02,6.016,24.017,21]triaconta-1(30),2,4,16,18,21,23,26,28-nonaen-7-yl)phenyl]-2-methyl-propanoic Acid]	A (an ΔTagg value less than or equal to 5 °C is marked “A”)
C[C@@H](Cc1cccc(C2CCCC(C)(C)CS(=O)(=O)CCc3c(c(F)cc4[nH]ccc34)Oc3ccc(F)c(c3)-c3nn2cc3C#N)c1)C(=O)O (mixture of isomers) [Compound 152, (2S)-3-[3-(3-Cyano-22,28-difluoro-10,10-dimethyl-12,12-dioxo-24-oxa-12λ6-thia-5,19,30-triazapentacyclo[23.3.1.12,5.015,23.016,20]triaconta-1(29),2(30),3,15,17,20,22,25,27-nonaen-6-yl)phenyl]-2-methyl-propanoic Acid]	C (a value greater than 10 °C and less than or equal to 25 °C is marked “C”)
C[C@H](Cc1cccc(C2NCC(F)(F)CCS(=O)(=O)CCc3c(c(F)c(F)c4[nH]ccc34)Oc3ccc(F)c(c3)-c3nc2nn3C)c1)C(=O)O (mixture of isomers) [Compound 380, (2R)-2-Methyl-3-[3-(9,9,21,22,28-pentafluoro-3-methyl-12,12-dioxo-24-oxa-12λ6-thia-3,4,7,19,30-pentazapentacyclo[23.3.1.12,5.015,23.016,20]triaconta-1(29),2(30),4,15,17,20,22,25,27-nonaen-6-yl)phenyl]propanoic Acid]	A (an ΔTagg value less than or equal to 5 °C is marked “A”)
CC1(C)CS(=O)(=O)CCc2c(c(F)cc3[nH]ccc23)Oc2ccc(F)c(c2)-c2ccnn2C(c2cccc(CCC(=O)O)c2)CCO1 (single isomer, unassigned) [Compound 88, 3-[3-(23,29-Difluoro-11,11-dimethyl-13,13-dioxo-10,25-dioxa-13λ6-thia-5,6,20-triazapentacyclo[24.3.1.02,6.016,24.017,21]triaconta-1(30),2,4,16,18,21,23,26,28-nonaen-7-yl)phenyl]propanoic Acid]	A (an ΔTagg value less than or equal to 5 °C is marked “A”)
Cn1nc2nc1-c1cc(ccc1F)Oc1c(F)cc3[nH]ccc3c1CCS(=O)(=O)CC(C)(C)COCC2(C)c1cccc(CCC(=O)O)c1 (single isomer, unassigned) [Compound 89A, 3-[3-(22,28-difluoro-3,6,10,10-tetramethyl-12,12-dioxo-8,24-dioxa-12λ6-thia-3,4,19,30-tetrazapentacyclo[23.3.1.12,5.015,23.016,20]triaconta-1(29),2(30),4,15,17,20,22,25,27-nonaen-6-yl)phenyl]propanoic Acid]	C (a value greater than 10 °C and less than or equal to 25 °C is marked “C”)
Cn1nc2nc1-c1cc(ccc1F)Oc1c(F)cc3[nH]ccc3c1CCS(=O)(=O)CC(C)(C)COCC2(C)c1cccc(CCC(=O)O)c1 (single isomer, unassigned) [Compound 89B, 3-[3-(22,28-difluoro-3,6,10,10-tetramethyl-12,12-dioxo-8,24-dioxa-12λ6-thia-3,4,19,30-tetrazapentacyclo[23.3.1.12,5.015,23.016,20]triaconta-1(29),2(30),4,15,17,20,22,25,27-nonaen-6-yl)phenyl]propanoic Acid]	A (an ΔTagg value less than or equal to 5 °C is marked “A”)
Cn1nc2nc1-c1cc(ccc1F)Oc1c(F)cc3[nH]ccc3c1CCS(=O)(=O)CC(C)(C)CCCC2(C)c1cccc(C(O)CO)c1 (single isomer, unassigned) [Compound 90A, 1-[3-(22,28-difluoro-3,6,10,10-tetramethyl-12,12-dioxo-24-oxa-12λ6-thia-3,4,19,30-tetrazapentacyclo[23.3.1.12,5.015,23.016,20]triaconta-1(29),2(30),4,15,17,20,22,25,27-nonaen-6-yl)phenyl]ethane-1,2-diol]	C (a value greater than 10 °C and less than or equal to 25 °C is marked “C”)
Cn1nc2nc1-c1cc(ccc1F)Oc1c(F)cc3[nH]ccc3c1CCS(=O)(=O)CC(C)(C)CCCC2(C)c1cccc(C(O)CO)c1 (single isomer, unassigned) [Compound 90B, 1-[3-(22,28-difluoro-3,6,10,10-tetramethyl-12,12-dioxo-24-oxa-12λ6-thia-3,4,19,30-tetrazapentacyclo[23.3.1.12,5.015,23.016,20]triaconta-1(29),2(30),4,15,17,20,22,25,27-nonaen-6-yl)phenyl]ethane-1,2-diol]	A (an ΔTagg value less than or equal to 5 °C is marked “A”)
CC(Cc1cccc(C2(CNCC(F)F)CCCC(C)(C)CS(=O)(=O)CCc3c(c(F)cc4[nH]ccc34)Oc3ccc(F)c(c3)-c3nc2nn3C)c1)C(=O)O (single isomer, unassigned) [Compound 137A, 3-[3-[6-[(2,2-difluoroethylamino)methyl]-22,28-difluoro-3,10,10-trimethyl-12,12-dioxo-24-oxa-12λ6-thia-3,4,19,30-tetrazapentacyclo[23.3.1.12,5.015,23.016,20]triaconta-1(29),2(30),4,15,17,20,22,25,27-nonaen-6-yl]phenyl]-2-methyl-propanoic Acid]	C (a value greater than 10 °C and less than or equal to 25 °C is marked “C”)
C[C@@H](Cc1cncc(C2(C)CCCC(C)(C)CS(=O)(=O)CCc3c(c(F)cc4[nH]ccc34)Oc3ccnc(c3)-c3nc2nn3C)c1)C(=O)O (single isomer, unassigned) [Compound 299A]	A (an ΔTagg value less than or equal to 5 °C is marked “A”)
C[C@@H](Cc1cncc(C2(C)CCCC(C)(C)CS(=O)(=O)CCc3c(c(F)cc4[nH]ccc34)Oc3ccnc(c3)-c3nc2nn3C)c1)C(=O)O (single isomer, unassigned) [Compound 299B]	B (a value above 5 °C and less than or equal to 10 °C is marked “B”)
C[C@@H](Cc1cncc(C2(C)CCCC(C)(C)CS(=O)(=O)CCc3c(c(F)c(F)c4[nH]ccc34)Oc3ccnc(c3)-c3nc2nn3C)n1)C(=O)O (single isomer, unassigned) [Compound 300A]	A (an ΔTagg value less than or equal to 5 °C is marked “A”)
C[C@@H](Cc1cncc(C2(C)CCCC(C)(C)CS(=O)(=O)CCc3c(c(F)c(F)c4[nH]ccc34)Oc3ccnc(c3)-c3nc2nn3C)n1)C(=O)O (single isomer, unassigned) [Compound 300B]	A (an ΔTagg value less than or equal to 5 °C is marked “A”)
Cn1nc2nc1-c1cc(ccc1F)[S+]([O-])c1c(F)cc3[nH]ccc3c1CCS(=O)(=O)CC(C)(C)CCC[C@]2(C)c1cccc([C@H](O)CO)c1 (single isomer, unassigned) [Compound 302B]	B (a value above 5 °C and less than or equal to 10 °C is marked “B”)
Cn1nc2nc1-c1cc(ccc1F)[S+]([O-])c1c(F)c(F)c3[nH]ccc3c1CCS(=O)(=O)CC(C)(C)CCC[C@]2(C)c1cccc(CC2(C(=O)O)CC2)c1 (single isomer, unassigned) [Compound 303B]	A (an ΔTagg value less than or equal to 5 °C is marked “A”)
Cn1nc2nc1-c1cc(ccn1)[S+]([O-])c1c(F)c(F)c3[nH]ccc3c1CCS(=O)(=O)CC(C)(C)CCC[C@]2(C)c1cccc(CC2(C(=O)O)CC2)c1 (single isomer, unassigned) [Compound 309]	B (a value above 5 °C and less than or equal to 10 °C is marked “B”)
C[C@@H](Cc1cccc(C2(C)CCCC(C)(C)CS(=O)(=O)CCc3c(c(F)cc4[nH]ccc34)Sc3ccnc(c3)-c3nc2nn3C)n1)C(=O)O (single isomer, unassigned) [Compound 314A]	A (an ΔTagg value less than or equal to 5 °C is marked “A”)
C[C@@H](Cc1cccc(C2(C)CCCC(C)(C)CS(=O)(=O)CCc3c(c(F)cc4[nH]ccc34)Sc3ccnc(c3)-c3nc2nn3C)n1)C(=O)O (single isomer, unassigned) [Compound 314B]	B (a value above 5 °C and less than or equal to 10 °C is marked “B”)
C[C@@H](Cc1cccc(C2(C)CCCC(C)(C)CS(=O)(=O)CCc3c(c(F)cc4[nH]ccc34)[S+]([O-])c3ccnc(c3)-c3nc2nn3C)n1)C(=O)O (single isomer, unassigned) [Compound 315A]	A (an ΔTagg value less than or equal to 5 °C is marked “A”)
C[C@@H](Cc1cccc(C2(C)CCCC(C)(C)CS(=O)(=O)CCc3c(c(F)cc4[nH]ccc34)[S+]([O-])c3ccnc(c3)-c3nc2nn3C)n1)C(=O)O (single isomer, unassigned) [Compound 315B]	A (an ΔTagg value less than or equal to 5 °C is marked “A”)
